Measured values as given in patent US7943606B2, “Compositions and methods to control abnormal cell growth” (CanCure Laboratories, LLC, priority 2005, dated 2011).
Counter-ions that a name gives are not always drawn. Like-named read-outs stand apart in the source and are kept apart here.

What was measured:
[1] = system: T47D cells; assay: Viability of T47D breast cancer cells; type: cell-based, human; conditions: for inhibition at 100 µM / IC50: Homo sapiens, T47D; for inhibition at 100 µM: read-out: Decrease in cell number (maximal decrease = 100%), T47D
Description: (§1) To quantify cell death, around the time when significant and characteristic morphological changes took place, cells were pulse-labeled for 10 minutes with [^3H]thymidine to measure DNA activity as described elsewhere [Tomono, M. and Kiss, Z. (1995), “Ethanol enhances the stimulatory effects of insulin and insulin-like growth factor-I on DNA synthesis in NIH 3T3 fibroblasts,” Biochem. Biophys. Res. Commun. 208, 63-67]. Also, cells were collected as suspensions using trypsin, an established method in cell biology, followed by re-plating of cells in fresh tissue culture medium. If no viable cells were obtained after one week in culture, it meant that the cells at the time of re-plating were dead. Survival values obtained with untreated cells were considered 100%. For the determination of relative number of viable cells after treatments, in most cases the MTT assay was used. This calorimetric assay is based on the ability of living cells, but not dead cells, to reduce 3-(4,5-dimethyl thiazol-2-yl)-2,5-diphenyltetrazolium bromide [Carmichael, J, De Graff, W. G., Gazdar, A. F., Minna, J. D. and Mitchell, J. B. (1987), “Evaluation of tetrazolium-based semi-automated calorimetric assay: Assessment of chemosensitivity testing,” Cancer Res. 47, 936-942]. For this assay, cells were plated in 96-well plates, and the MTT assay was performed both in untreated and treated cell cultures. The MTT assay also was performed at the start of treatments to allow assessment of proliferation rates in the control and treated cell cultures.
About 40% confluent cultures of T47D cells, cultured in 12-well plates in RPMI 1640 medium supplemented with 0.2 IU bovine insulin and 10% FBS, were either untreated (FIG. 4A), or were treated with 100 μM CCDTHT (CCompound3) for 72 hours (FIG. 4B).
(§2) NIH3T3, T47D, A-431, HT-29, and MEL-28 cells were cultured as indicated earlier. CaOV-3 human ovarian cancer cells were cultured in DMEM containing 10% FBS. ZR-75-1 human estrogen receptor-positive breast cancer cells were maintained in RPMI 1640 medium supplemented with 10% FBS. HTB-157 human fetal fibroblasts, MEL-24 human malignant melanoma cells, Hep G2 human hepatoblastoma cells, and CaCO-2 human colon adenocarcinoma cells were maintained in Eagles's MEM containing 10% FBS. MB-231 human estrogen receptor-negative breast cancer cells were maintained in Leibovitz's L-15 medium supplemented with 10% FBS. Cells were seeded into 96-well plates and treated at ˜70-90% confluency. Two hours prior to treatments the medium was changed for fresh 10% serum medium, and then the cells were incubated for 10 days in the absence (□) or presence of 50 μM CCDTHT ? or 100 μM CCDTHT (▪). The medium was changed and the cells were re-treated on days 3 and 6. The MTT assay was used to determine cell viability on day 10. The data, shown in FIG. 6, are the mean±std. dev. of 8 incubations in one experiment.
The MRC-5 cell line is derived from normal lung tissue of a […] fetus. MRC-5 cells were maintained and treated in Eagles Medium with Hanks' BSS containing 10% fetal bovine serum. The T47D cells were maintained and treated in RPMI 1640 medium supplemented with 0.2 IU bovine insulin and 10% fetal bovine serum. The CaOV-3 human ovarian cancer cells were cultured in Dulbecco's modified Eagle's medium containing 10% fetal bovine serum. The cells were seeded in 96-well plates either at 10,000 cells per well or 30,000 cells per well to examine the antiproliferative and cytotoxic effects of various CC compounds, respectively. The cells were incubated for 24 hours, then the medium was changed followed by the treatments of cultures 2 hours after the medium change. At this point, cell cultures seeded at 10,000 cells per well and 30,000 cells per well were 25-35% and 80-90% confluent, respectively.

[2] = system: MEL-28 cells; assay: Viability of MEL-28 melanoma cells; type: cell-based, human; conditions: for inhibition at 100 µM: Homo sapiens, SK-MEL-28, read-out: Decrease in cell number (maximal decrease = 100%), MEL-28
Description: as §1
About 60% confluent cultures of MEL-28 cells, cultured in 12-well plates in MEM medium supplemented with 10% FBS, were either untreated (FIG. 2A), or were treated with 100 μM CCDTHT (CCompound3) for 72 hours (FIG. 2B).
The NIH 3T3 (normal) mouse fibroblast, A431 human epidermoid adenocarcinoma, and MCF-7 human breast cancer cells were cultured in DMEM medium containing 10% FBS. The MEL-28 human melanoma cells were cultured in MEM medium containing 10% FBS. The HT-29 human colon adenocarcinoma cells were cultured in McCoy's 5a medium containing 10% FBS. The A549 human lung carcinoma cells were maintained in Ham's F12K medium containing 10% FBS. Cells were seeded into 96-well plates and treated at ˜70-90% confluency. Two hours before treatments the medium was changed for fresh 10% serum medium, and then the cells were incubated for 72 hours in the presence of 0-200 μM of CCompound1 (●) or CCompound3 (CCDTHT) (▴), as indicated. The MTT assay was used to determine cell viability after treatments. The values, shown in FIGS. 5A-5F and expressed as percent decrease in viability compared to the untreated control cells, are the mean±std. dev. of 8 incubations in one experiment.
as §2

[3] = 100 μM, 72 hours, 12-well plates

Row | Structure (SMILES) | inhibition at 100 µM ([1]; 100 μM, 72 hours) [%] | inhibition at 100 µM ([2]; 100 μM, 72 hours) [%] | other results
1 | CC[N+](C)(CC)CCOCc1ccc2sc3ccccc3c(=O)c2c1.[I-] [CCDTHT, N,N-diethyl-N-methyl-2-[(9-oxo-9H-thioxanthen-2-yl)methoxy]-ethanaminium iodide] | 61 | 60 | DNA synthesis after re-seeding treated T47D cells ([1]; 100 μM 72 hours, re-seeded, 96 hours later): no DNA synthesis could be detected; morphology / cell death, T47D [1, 3]: practically all cells rounded up; sensitivity to the inhibitory actions, T47D ([1]; 50 and 100 μM, 10 days, MTT): very sensitive; IC50 ([1]; 10,000 cells per well (25-35% confluent), 72 hours, MTT, read-out: IC50 values, Antiproliferative, T47D): 47 µM; IC50 ([1]; 30,000 cells per well (80-90% confluent), 72 hours, MTT, read-out: IC50 values, Cytotoxic, T47D): 66 µM; reduction of cell numbers, MEL-28, CCDTHT versus CCompound1 ([2]; 0-200 μM, 72 hours, MTT): clearly more effective than CCompound1; reversibility: proliferation in fresh medium after treatment, MEL-28 ([2]; 50 μM 48 hours, then 96 hours without CCDTHT): not sufficient to suppress proliferation; DNA synthesis (radiolabeled thymidine), MEL-28 ([2]; 100 μM, 72 hours): did not synthesize detectable amount of DNA; morphology / cell death, MEL-28 [2, 3]: practically all cells rounded up; decrease in the number of viable cells versus 0.5 mM HC-3, MEL-28 ([2]; 100 μM, 72 hours, MTT): much greater decreases in the number of viable cells compared to 0.5 mM HC-3; sensitivity to the inhibitory actions, MEL-28 ([2]; 50 and 100 μM, 10 days, MTT): very sensitive
2 | CC[N+](CC)(CC)CCCOCc1ccc2sc3ccccc3c(=O)c2c1 [CCcompound9, N,N,N-Triethyl-3-[(9-oxo-9H-thioxanthen-2-yl)methoxy]-propane-1-aminium iodide] | 52 | 14 | 
3 | CC[N+](C)(CC)CCCOCc1ccc2sc3ccccc3c(=O)c2c1 [CCcompound10, N,N-Diethyl-N-methyl-3-[(9-oxo-9H-thioxanthen-2-yl)methoxy]-propane-1-aminium iodide] | 51 | 11 | 
4 | CC[N+](C)(C)CCCOCc1ccc2sc3ccccc3c(=O)c2c1 [CCcompound11, N,N-Dimethyl-N-ethyl-3-[(9-oxo-9H-thioxanthen-2-yl)methoxy]-propane-1-aminium iodide] | 59 | 94 | 
5 | CC[NH+](CC)CCCOCc1ccc2sc3ccccc3c(=O)c2c1 [CCcompound12, 2-{[3-(Diethylamino)propoxy]meth-yl}-9H-thioxanthen-9-one hydrochloride] | 48 | 71 | 
6 | C[N+](C)(CCO)Cc1ccc2sc3ccccc3c(=O)c2c1 [CCcompound13, 2-Hydroxy-N,N-dimethyl-N-[(9-oxo-9H-thioxanthen-2-yl)methyl]-ethanaminium bromide] | 47 | 11 | 
7 | CC[N+](CC)(CCO)Cc1ccc2sc3ccccc3c(=O)c2c1 [CCcompound14, 2-Hydroxy-N,N-Diethyl-N-[(9-oxo-9H-thioxanthen-2-yl)methyl]-ethanaminium bromide] | 58 | 90 | 
8 | C[N+](C)(CCCO)Cc1ccc2sc3ccccc3c(=O)c2c1 [CCcompound15, 3-Hydroxy-N,N-dimethyl-N-[(9-oxo-9H-thioxanthen-2-yl)methyl]propane-1-aminium bromide] | 35 | 19 | 
9 | CC[N+](CC)(CCCO)Cc1ccc2sc3ccccc3c(=O)c2c1 [CCcompound16, 3-Hydroxy-N,N-diethyl-N-[(9-oxo-9H-thioxanthen-2-yl)methyl]-propane-1-aminium bromide] | 48 | 10 | 
